Results published in PubChem BioAssay AID1259407 (Chemical Carcinogenesis Research Information System (CCRIS), 2018).
Active and inactive are the calls of the source. No rule for the calls is given here.

Test system: CCRIS mutagenicity, Ames/micronucleus/aberration tests
Assay: CCRIS mutagenicity studies
[1] = Test System: AMES SALMONELLA TYPHIMURIUM, Strain/Indicator: TA98, Metabolic Activation: NONE, Method: STANDARD PLATE
[2] = Test System: AMES SALMONELLA TYPHIMURIUM, Strain/Indicator: TA100, Metabolic Activation: NONE, Method: STANDARD PLATE
[3] = Test System: AMES SALMONELLA TYPHIMURIUM, Strain/Indicator: TA98, Metabolic Activation: NONE, Method: PREINCUBATION
[4] = Test System: AMES SALMONELLA TYPHIMURIUM, Strain/Indicator: TA100, Metabolic Activation: NONE, Method: PREINCUBATION
[5] = Test System: AMES SALMONELLA TYPHIMURIUM, Strain/Indicator: TA1535, Metabolic Activation: NONE, Method: PREINCUBATION
[6] = Test System: AMES SALMONELLA TYPHIMURIUM, Strain/Indicator: TA1537, Metabolic Activation: NONE, Method: PREINCUBATION
[7] = Test System: AMES SALMONELLA TYPHIMURIUM, Strain/Indicator: TA98, Metabolic Activation: RAT, LIVER, S-9, AROCLOR 1254, Method: STANDARD PLATE
[8] = Test System: AMES SALMONELLA TYPHIMURIUM, Strain/Indicator: TA100, Metabolic Activation: RAT, LIVER, S-9, AROCLOR 1254, Method: STANDARD PLATE

Structure (SMILES): COc1ccc([N+](=O)[O-])ccc1=O
- mutagenic call (Test System: AMES SALMONELLA TYPHIMURIUM, Strain/Indicator: TA98, Metabolic Activation: RAT, LIVER, S-9, KC500 OR PHENOBARBITAL, Method: LIQUID SUSPENSION): active; positive
- mutagenic call (Test System: AMES SALMONELLA TYPHIMURIUM, Strain/Indicator: TA100, Metabolic Activation: RAT, LIVER, S-9, KC500 OR PHENOBARBITAL, Method: LIQUID SUSPENSION): active; positive

Structure (SMILES): CCc1ccc(NC(=O)c2csc([N+](=O)[O-])c2)cc1
- mutagenic call [1]: active; positive
- mutagenic call [2]: active; positive

Structure (SMILES): O=[N+]([O-])c1cc([As](=O)(O)O)ccc1O
- mutagenic call (End Point: IN VITRO CHROMOSOMAL ABERRATIONS, Test System: CHO CELLS, Metabolic Activation: RAT, LIVER, S-9, AROCLOR 1254): inactive; negative; testing limited by solubility of the chemical
- mutagenic call (End Point: IN VITRO CHROMOSOMAL ABERRATIONS, Test System: CHO CELLS, Metabolic Activation: RAT, LIVER, S-9, PHENOBARBITAL AND BETA-NAPHTHOFLAVONE): inactive; negative
- mutagenic call (Test System: AMES SALMONELLA TYPHIMURIUM, Strain/Indicator: TA98, Metabolic Activation: HAMSTER, LIVER, S-9, AROCLOR 1254 (10%), Method: PREINCUBATION): inactive; negative
- mutagenic call (Test System: AMES SALMONELLA TYPHIMURIUM, Strain/Indicator: TA98, Metabolic Activation: HAMSTER, LIVER, S-9, AROCLOR 1254, Method: PREINCUBATION): inactive; negative
- mutagenic call [3]: inactive; negative
- mutagenic call (Test System: AMES SALMONELLA TYPHIMURIUM, Strain/Indicator: TA98, Metabolic Activation: RAT, LIVER, S-9, AROCLOR 1254 (10%), Method: PREINCUBATION): inactive; negative
- mutagenic call (Test System: AMES SALMONELLA TYPHIMURIUM, Strain/Indicator: TA98, Metabolic Activation: RAT, LIVER, S-9, AROCLOR 1254, Method: PREINCUBATION): inactive; negative
- mutagenic call (Test System: AMES SALMONELLA TYPHIMURIUM, Strain/Indicator: TA100, Metabolic Activation: HAMSTER, LIVER, S-9, AROCLOR 1254 (10%), Method: PREINCUBATION): inactive; negative
- mutagenic call (Test System: AMES SALMONELLA TYPHIMURIUM, Strain/Indicator: TA100, Metabolic Activation: HAMSTER, LIVER, S-9, AROCLOR 1254, Method: PREINCUBATION): inactive; negative
- mutagenic call [4]: inactive; negative
- mutagenic call (Test System: AMES SALMONELLA TYPHIMURIUM, Strain/Indicator: TA100, Metabolic Activation: RAT, LIVER, S-9, AROCLOR 1254 (10%), Method: PREINCUBATION): inactive; negative
- mutagenic call (Test System: AMES SALMONELLA TYPHIMURIUM, Strain/Indicator: TA100, Metabolic Activation: RAT, LIVER, S-9, AROCLOR 1254, Method: PREINCUBATION): inactive; negative
- mutagenic call (Test System: AMES SALMONELLA TYPHIMURIUM, Strain/Indicator: TA1535, Metabolic Activation: HAMSTER, LIVER, S-9, AROCLOR 1254 (10%), Method: PREINCUBATION): inactive; negative
- mutagenic call (Test System: AMES SALMONELLA TYPHIMURIUM, Strain/Indicator: TA1535, Metabolic Activation: HAMSTER, LIVER, S-9, AROCLOR 1254, Method: PREINCUBATION): inactive; negative
- mutagenic call [5]: inactive; negative
- mutagenic call (Test System: AMES SALMONELLA TYPHIMURIUM, Strain/Indicator: TA1535, Metabolic Activation: RAT, LIVER, S-9, AROCLOR 1254 (10%), Method: PREINCUBATION): inactive; negative
- mutagenic call (Test System: AMES SALMONELLA TYPHIMURIUM, Strain/Indicator: TA1535, Metabolic Activation: RAT, LIVER, S-9, AROCLOR 1254, Method: PREINCUBATION): inactive; negative
- mutagenic call (Test System: AMES SALMONELLA TYPHIMURIUM, Strain/Indicator: TA1537, Metabolic Activation: HAMSTER, LIVER, S-9, AROCLOR 1254 (10%), Method: PREINCUBATION): inactive; negative
- mutagenic call (Test System: AMES SALMONELLA TYPHIMURIUM, Strain/Indicator: TA1537, Metabolic Activation: HAMSTER, LIVER, S-9, AROCLOR 1254, Method: PREINCUBATION): inactive; negative
- mutagenic call [6]: inactive; negative
- mutagenic call (Test System: AMES SALMONELLA TYPHIMURIUM, Strain/Indicator: TA1537, Metabolic Activation: RAT, LIVER, S-9, AROCLOR 1254 (10%), Method: PREINCUBATION): inactive; negative
- mutagenic call (Test System: AMES SALMONELLA TYPHIMURIUM, Strain/Indicator: TA1537, Metabolic Activation: RAT, LIVER, S-9, AROCLOR 1254, Method: PREINCUBATION): inactive; negative
- mutagenic call (Test System: MOUSE LYMPHOMA, Strain/Indicator: L5178Y (TK+/TK-), Metabolic Activation: NONE, Method: SUSPENSION/PLATE): active; positive

Structure (SMILES): CCCCN(CC(C)=O)N=O
- mutagenic call (Test System: AMES SALMONELLA TYPHIMURIUM, Strain/Indicator: TA1535, Metabolic Activation: RAT, LIVER, S-9, KC500 OR PHENOBARBITAL, Method: LIQUID SUSPENSION): active; positive

Structure (SMILES): O=c1cn[nH]c(=O)[nH]1
- mutagenic call (Test System: AMES SALMONELLA TYPHIMURIUM, Strain/Indicator: TA98, Metabolic Activation: MAIZE SEEDLING, S-14, Method: PREINCUBATION): inactive; negative
- mutagenic call (Test System: AMES SALMONELLA TYPHIMURIUM, Strain/Indicator: TA98, Metabolic Activation: MOUSE, LIVER, S-9, Method: PREINCUBATION): inactive; negative
- mutagenic call [3]: inactive; negative
- mutagenic call [1]: inactive; negative
- mutagenic call [7]: active; positive
- mutagenic call (Test System: AMES SALMONELLA TYPHIMURIUM, Strain/Indicator: TA100, Metabolic Activation: MAIZE SEEDLING, S-14, Method: PREINCUBATION): inactive; negative
- mutagenic call (Test System: AMES SALMONELLA TYPHIMURIUM, Strain/Indicator: TA100, Metabolic Activation: MOUSE, LIVER, S-9, Method: PREINCUBATION): inactive; negative
- mutagenic call [4]: inactive; negative
- mutagenic call [2]: inactive; negative
- mutagenic call [8]: inactive; negative
- mutagenic call [5]: inactive; negative
- mutagenic call (Test System: AMES SALMONELLA TYPHIMURIUM, Strain/Indicator: TA1535, Metabolic Activation: NONE, Method: STANDARD PLATE): inactive; negative
- mutagenic call (Test System: AMES SALMONELLA TYPHIMURIUM, Strain/Indicator: TA1535, Metabolic Activation: RAT, LIVER, S-9, AROCLOR 1254, Method: STANDARD PLATE): inactive; negative
- mutagenic call [6]: inactive; negative
- mutagenic call (Test System: AMES SALMONELLA TYPHIMURIUM, Strain/Indicator: TA1537, Metabolic Activation: NONE, Method: STANDARD PLATE): inactive; negative
- mutagenic call (Test System: AMES SALMONELLA TYPHIMURIUM, Strain/Indicator: TA1537, Metabolic Activation: RAT, LIVER, S-9, AROCLOR 1254, Method: STANDARD PLATE): inactive; negative
- mutagenic call (Test System: AMES SALMONELLA TYPHIMURIUM, Strain/Indicator: TA1538, Metabolic Activation: NONE, Method: PREINCUBATION): inactive; negative
- mutagenic call (Test System: AMES SALMONELLA TYPHIMURIUM, Strain/Indicator: TA1538, Metabolic Activation: NONE, Method: STANDARD PLATE): inactive; negative
- mutagenic call (Test System: AMES SALMONELLA TYPHIMURIUM, Strain/Indicator: TA1538, Metabolic Activation: RAT, LIVER, S-9, AROCLOR 1254, Method: STANDARD PLATE): active; positive

Structure (SMILES): CC(C)(S)[C@H](N)C(=O)O
- mutagenic call (Test System: AMES SALMONELLA TYPHIMURIUM, Strain/Indicator: TA92, Metabolic Activation: NONE, Method: STANDARD PLATE): active; positive
- mutagenic call (Test System: AMES SALMONELLA TYPHIMURIUM, Strain/Indicator: TA92, Metabolic Activation: RAT, KIDNEY, S-9, Method: STANDARD PLATE): active; positive
- mutagenic call (Test System: AMES SALMONELLA TYPHIMURIUM, Strain/Indicator: TA92, Metabolic Activation: RAT, LIVER, S-9, Method: STANDARD PLATE): active; positive
- mutagenic call [2]: active; positive
- mutagenic call (Test System: AMES SALMONELLA TYPHIMURIUM, Strain/Indicator: TA100, Metabolic Activation: RAT, KIDNEY, S-9, Method: STANDARD PLATE): active; positive
- mutagenic call (Test System: AMES SALMONELLA TYPHIMURIUM, Strain/Indicator: TA100, Metabolic Activation: RAT, LIVER, S-9, Method: STANDARD PLATE): active; positive
- mutagenic call (Test System: AMES SALMONELLA TYPHIMURIUM, Strain/Indicator: TA102, Metabolic Activation: NONE, Method: STANDARD PLATE): active; positive

Structure (SMILES): O=CN(O)c1ccc(F)cc1
- mutagenic call [1]: inactive; negative
- mutagenic call [7]: active; positive
- mutagenic call [2]: inactive; negative
- mutagenic call [8]: active; positive
